Like-named read-outs stand apart in the source and are kept apart here.
Assays:
Type in all cases: cell-based
[1] = biological target: T1, human T-type calcium channels hCav3.2 (Homo sapiens, UniProt O95180); assay: whole-cell patch-clamp, calcium peak currents in stably transfected HEK 293 cells; design: blocked calcium peak currents by: unit not given here; settings: for Relative current amplitude (%): hCav3.2 in HEK 293 cells; for IC50: two site binding model
T1 construct: expressed in transfected cells; host or cells: HEK 293 cells (European Collection of Animal Cell Culture)
T1 sequence (O95180 whole entry): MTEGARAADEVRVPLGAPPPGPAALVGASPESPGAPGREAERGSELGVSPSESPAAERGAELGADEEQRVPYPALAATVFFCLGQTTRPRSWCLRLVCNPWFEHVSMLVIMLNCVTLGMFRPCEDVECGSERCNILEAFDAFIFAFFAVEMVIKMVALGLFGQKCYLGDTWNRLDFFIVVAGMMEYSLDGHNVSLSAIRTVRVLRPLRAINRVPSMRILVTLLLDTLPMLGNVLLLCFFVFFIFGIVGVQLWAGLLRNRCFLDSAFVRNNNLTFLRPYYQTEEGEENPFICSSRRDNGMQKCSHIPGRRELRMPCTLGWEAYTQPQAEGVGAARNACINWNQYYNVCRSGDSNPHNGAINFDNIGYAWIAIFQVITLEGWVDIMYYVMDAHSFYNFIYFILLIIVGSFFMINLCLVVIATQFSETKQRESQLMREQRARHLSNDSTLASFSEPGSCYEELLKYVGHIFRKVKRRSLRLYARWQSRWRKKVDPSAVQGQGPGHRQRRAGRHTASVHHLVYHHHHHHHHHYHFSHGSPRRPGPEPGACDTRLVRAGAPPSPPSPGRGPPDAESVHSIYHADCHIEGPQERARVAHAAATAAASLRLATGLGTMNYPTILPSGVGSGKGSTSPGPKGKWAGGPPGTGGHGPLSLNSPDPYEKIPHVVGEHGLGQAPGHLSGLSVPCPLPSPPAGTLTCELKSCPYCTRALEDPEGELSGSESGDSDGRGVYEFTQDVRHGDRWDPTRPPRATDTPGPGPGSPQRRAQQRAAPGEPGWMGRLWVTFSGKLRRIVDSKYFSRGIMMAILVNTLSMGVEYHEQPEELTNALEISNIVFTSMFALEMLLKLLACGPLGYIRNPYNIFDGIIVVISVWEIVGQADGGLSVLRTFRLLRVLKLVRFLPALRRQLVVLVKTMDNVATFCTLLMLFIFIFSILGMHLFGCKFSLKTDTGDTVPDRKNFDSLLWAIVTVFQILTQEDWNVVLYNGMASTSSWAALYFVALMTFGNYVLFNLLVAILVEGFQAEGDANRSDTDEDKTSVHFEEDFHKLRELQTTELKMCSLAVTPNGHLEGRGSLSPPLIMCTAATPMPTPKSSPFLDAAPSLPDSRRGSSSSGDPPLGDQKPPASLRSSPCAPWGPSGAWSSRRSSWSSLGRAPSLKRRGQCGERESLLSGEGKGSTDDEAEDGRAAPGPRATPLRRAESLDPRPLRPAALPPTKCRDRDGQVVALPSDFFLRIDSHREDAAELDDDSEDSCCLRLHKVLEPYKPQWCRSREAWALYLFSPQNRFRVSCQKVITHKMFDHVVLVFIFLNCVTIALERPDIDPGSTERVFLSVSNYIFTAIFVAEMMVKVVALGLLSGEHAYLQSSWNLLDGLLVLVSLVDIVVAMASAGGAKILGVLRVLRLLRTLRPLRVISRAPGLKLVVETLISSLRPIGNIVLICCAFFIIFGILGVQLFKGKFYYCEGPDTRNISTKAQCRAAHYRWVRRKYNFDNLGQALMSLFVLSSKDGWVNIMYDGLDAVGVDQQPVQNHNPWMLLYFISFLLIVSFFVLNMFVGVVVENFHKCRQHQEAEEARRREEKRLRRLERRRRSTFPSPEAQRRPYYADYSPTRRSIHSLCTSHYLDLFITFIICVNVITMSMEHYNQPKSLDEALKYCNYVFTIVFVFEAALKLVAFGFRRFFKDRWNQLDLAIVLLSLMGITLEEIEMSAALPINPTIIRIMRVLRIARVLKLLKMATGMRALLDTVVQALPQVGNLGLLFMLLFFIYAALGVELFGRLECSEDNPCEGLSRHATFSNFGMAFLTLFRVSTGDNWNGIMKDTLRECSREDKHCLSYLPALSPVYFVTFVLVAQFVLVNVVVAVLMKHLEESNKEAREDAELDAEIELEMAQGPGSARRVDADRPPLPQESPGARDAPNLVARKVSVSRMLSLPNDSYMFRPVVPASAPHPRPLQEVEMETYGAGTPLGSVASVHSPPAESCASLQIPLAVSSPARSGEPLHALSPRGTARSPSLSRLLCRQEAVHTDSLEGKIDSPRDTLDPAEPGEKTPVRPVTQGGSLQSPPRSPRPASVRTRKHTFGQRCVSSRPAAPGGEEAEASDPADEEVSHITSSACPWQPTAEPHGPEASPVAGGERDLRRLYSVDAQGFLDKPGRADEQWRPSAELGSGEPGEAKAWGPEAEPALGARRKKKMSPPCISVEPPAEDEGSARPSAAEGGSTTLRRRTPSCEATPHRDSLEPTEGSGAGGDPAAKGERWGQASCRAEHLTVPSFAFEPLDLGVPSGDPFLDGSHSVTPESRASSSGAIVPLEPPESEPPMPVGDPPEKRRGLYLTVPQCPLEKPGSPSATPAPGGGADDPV
Method: A study was carried out to determine the effect of eslicarbazepine.
Cells were stably transfected with hCav3.2 cDNA.
Calcium inward currents were measured upon depolarization of the cell membrane to −25 mV for 50 ms from a holding potential of −80 mV. This voltage protocol was run at intervals of 10 s until stabilization of evoked hCav3.2 currents. […] Vehicle was either bath solution or 0.2% DMSO.
Analysis of variance (ANOVA) with post test multisample comparison (Dunnett) was conducted with GraphPad Prism 4 Software. IC50 were calculated with the equation: […]

[2] = biological target: T2, α3β2γ2 GABA receptors (Homo sapiens, UniProt P18507+P34903+P47870); assay: whole-cell patch-clamp, sub-maximal GABA inward currents in stably transfected Ltk cells; settings: Table 2
T2 construct: host or cells: Ltk cells, expression induced with dexamethasone
Method: (§1) Carbamazepine (CBZ) aggravates absence seizures in ‘generalized absence epilepsy rats from. Strasbourg’. One putative mechanism for the aggravation is through its reported potentiation of GABAA currents. A study was carried out to determine the effect of eslicarbazepine, R-licarbazepine and carbamazepine on sub-maximal GABA currents in Ltk cells stably expressing α1β2γ2, α2β2γ2, α3β2γ2 or α5β2γ2 GABA-receptors. The whole-cell patch-clamp technique was used to investigate the effects of the test compounds on GABAA receptors.
(§2) Used Ltk cells were stably transfected with recombinant GABAA cDNAs: α1β2γ2, α2β2γ2, α3β2γ2 or α5β2γ2 (B'SYS GmbH, Switzerland). […] For the electrophysiological experiments cells were cultivated, at a density that enabled single cells to be measured, in medium without antibiotics or antimycotics. Cells were tested 24-48 hours following induction of transgene expression with dexamethasone.
(§3) The whole-cell patch clamp recordings from transfected Ltk cells (voltage-clamped at a holding potential of −80 mV) were made using a EPC-7, HEKA Electronics amplifier. GABA inward-currents were measured upon application of 1 or 2 μM GABA to patch-clamped cells (at an EC5).
(§4) Analysis of Variance (ANOVA) with post test multisample comparison (Dunnett) was conducted with GraphPad Prism 4 Software.

[3] = biological target: T3, α1β2γ2 GABA receptors (Homo sapiens, UniProt P14867+P18507+P47870); assay: as above
T3 construct: host or cells: Ltk cells, expression induced with dexamethasone
T3 sequence (P14867 28-456): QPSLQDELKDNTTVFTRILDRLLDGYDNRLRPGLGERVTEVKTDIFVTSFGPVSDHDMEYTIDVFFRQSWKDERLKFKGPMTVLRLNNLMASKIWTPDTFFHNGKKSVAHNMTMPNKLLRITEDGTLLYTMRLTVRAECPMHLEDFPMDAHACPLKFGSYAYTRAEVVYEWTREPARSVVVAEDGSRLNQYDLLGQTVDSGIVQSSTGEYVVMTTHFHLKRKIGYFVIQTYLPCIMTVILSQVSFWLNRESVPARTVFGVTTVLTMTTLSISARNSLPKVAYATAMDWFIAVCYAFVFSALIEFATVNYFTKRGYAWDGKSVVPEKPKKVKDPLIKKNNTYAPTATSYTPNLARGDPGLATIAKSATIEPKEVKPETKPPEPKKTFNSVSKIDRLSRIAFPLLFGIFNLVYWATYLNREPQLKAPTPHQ
T3 sequence (P47870 25-512 limits assumed): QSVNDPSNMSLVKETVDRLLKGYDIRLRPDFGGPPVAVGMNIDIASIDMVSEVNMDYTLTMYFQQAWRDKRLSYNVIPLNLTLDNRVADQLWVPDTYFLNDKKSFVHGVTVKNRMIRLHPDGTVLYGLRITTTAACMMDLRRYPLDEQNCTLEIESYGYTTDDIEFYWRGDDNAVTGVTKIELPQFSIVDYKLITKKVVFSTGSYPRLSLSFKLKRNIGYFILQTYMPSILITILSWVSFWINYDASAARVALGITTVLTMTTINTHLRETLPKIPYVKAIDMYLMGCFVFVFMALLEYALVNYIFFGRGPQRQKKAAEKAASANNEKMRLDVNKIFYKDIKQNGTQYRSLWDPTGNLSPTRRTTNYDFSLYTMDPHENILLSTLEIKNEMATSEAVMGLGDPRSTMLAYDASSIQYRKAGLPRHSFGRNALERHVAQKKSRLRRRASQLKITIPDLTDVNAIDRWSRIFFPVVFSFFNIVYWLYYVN
T3 sequence (P18507 40-475): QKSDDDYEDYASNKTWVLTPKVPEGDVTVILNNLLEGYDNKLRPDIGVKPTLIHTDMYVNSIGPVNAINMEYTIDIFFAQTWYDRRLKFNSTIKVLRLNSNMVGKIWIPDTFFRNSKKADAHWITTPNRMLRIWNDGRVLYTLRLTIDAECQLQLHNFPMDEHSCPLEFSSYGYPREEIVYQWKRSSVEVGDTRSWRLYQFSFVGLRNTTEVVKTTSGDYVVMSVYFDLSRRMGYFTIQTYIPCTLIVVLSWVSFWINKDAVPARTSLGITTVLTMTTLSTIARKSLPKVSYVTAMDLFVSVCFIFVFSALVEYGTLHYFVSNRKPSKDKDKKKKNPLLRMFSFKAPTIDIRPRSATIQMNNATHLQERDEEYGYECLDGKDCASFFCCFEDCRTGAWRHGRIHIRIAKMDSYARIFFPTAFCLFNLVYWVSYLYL
Method: as §1, §2, §3, §4

[4] = biological target: T4, α2β2γ2 GABA receptors (Homo sapiens, UniProt P18507+P47869+P47870); assay: as above; settings: Table 2
T4 construct: host or cells: Ltk cells, expression induced with dexamethasone
T4 sequence (P47869 29-451): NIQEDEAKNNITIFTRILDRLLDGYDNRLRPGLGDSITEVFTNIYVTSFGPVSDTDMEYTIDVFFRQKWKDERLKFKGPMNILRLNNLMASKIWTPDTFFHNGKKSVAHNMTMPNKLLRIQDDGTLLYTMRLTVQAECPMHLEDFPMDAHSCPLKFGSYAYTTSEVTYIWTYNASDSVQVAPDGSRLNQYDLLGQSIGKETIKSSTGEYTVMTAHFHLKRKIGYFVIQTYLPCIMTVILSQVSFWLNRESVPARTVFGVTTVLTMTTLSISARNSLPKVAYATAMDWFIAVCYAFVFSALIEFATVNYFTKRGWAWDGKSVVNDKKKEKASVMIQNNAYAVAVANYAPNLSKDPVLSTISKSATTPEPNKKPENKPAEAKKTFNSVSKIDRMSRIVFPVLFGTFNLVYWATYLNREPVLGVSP
T4 sequence (P47870 25-512 limits assumed): as the sequence (P47870 25-512 limits assumed) above
T4 sequence (P18507 40-475): as the sequence (P18507 40-475) above
Method: as §1, §2, §3, §4

[5] = biological target: T5, α5β2γ2 GABA receptors (Homo sapiens, UniProt P18507+P31644+P47870); assay: as above; settings: Table 2
T5 construct: host or cells: Ltk cells, expression induced with dexamethasone
T5 sequence (P31644 32-462): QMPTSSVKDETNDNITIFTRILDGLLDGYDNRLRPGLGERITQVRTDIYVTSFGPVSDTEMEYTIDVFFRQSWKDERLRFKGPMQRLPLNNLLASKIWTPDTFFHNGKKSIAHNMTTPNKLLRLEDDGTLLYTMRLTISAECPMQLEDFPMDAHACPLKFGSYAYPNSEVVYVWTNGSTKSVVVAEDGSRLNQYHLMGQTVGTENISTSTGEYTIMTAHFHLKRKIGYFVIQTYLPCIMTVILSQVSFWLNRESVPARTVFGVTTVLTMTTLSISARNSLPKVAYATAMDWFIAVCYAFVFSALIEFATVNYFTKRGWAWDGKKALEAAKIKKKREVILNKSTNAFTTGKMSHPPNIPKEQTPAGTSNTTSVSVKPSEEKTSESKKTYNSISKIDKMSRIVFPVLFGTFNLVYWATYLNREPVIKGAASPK
T5 sequence (P47870 25-512 limits assumed): as the sequence (P47870 25-512 limits assumed) above
T5 sequence (P18507 40-475): as the sequence (P18507 40-475) above
Method: as §1, §2, §3, §4

[6] = 50 μM with GABA at EC5, Ltk cells
[7] = 100 μM with GABA at EC5, Ltk cells
[8] = 250 μM with GABA at EC5, Ltk cells
[9] = 500 μM with GABA at EC5, Ltk cells
[10] = 1000 μM with GABA at EC5, Ltk cells

Structure (SMILES): COCC(=O)O[C@]1(CCN(C)CCCc2nc3ccccc3[nH]2)CCc2cc(F)ccc2[C@@H]1C(C)C [Mibefradil]
- effect on hCav3.2 calcium peak currents (in words) [1]: dose dependently inhibited

Structure (SMILES): CCCC(CCC)C(=O)O [valproic acid]
- blocked calcium peak currents by ([1]; 1 mM, n=8 cells): 66.15±2.05

Structure (SMILES): NC(=O)N1c2ccccc2CC(=O)c2ccccc21 [Oxcarbazepine, 10,11-dihydro-10-oxo-5H-dibenz[b,f]azepine-5-carboxamide]
- effect on hCav3.2 currents (in words) ([1]; up to 30 μM): devoid of effect

Structure (SMILES): NC(=O)N1c2ccccc2C=Cc2ccccc21 [Carbamazepine, 5H-dibenzo[b,f]azepine-5-carboxamide]
- Current stimulation (%) α3β2γ2 [2, 6]: 93.32 ± 4.07%
- Current stimulation (%) α3β2γ2 [2, 7]: 112.76 ± 5.40%
- Current stimulation (%) α3β2γ2 [2, 8]: 131.06 ± 9.39%
- Current stimulation (%) α3β2γ2 [2, 9]: 120.27 ± 11.81%
- Current stimulation (%) α3β2γ2 [2, 10]: 166.66 ± 21.00 %
- Current stimulation (%) α1β2γ2 ([3]; 50 μM with GABA at EC5, Ltk cells, Table 2): 104.30 ± 5.02%
- Current stimulation (%) α1β2γ2 ([3]; 100 μM with GABA at EC5, Ltk cells, Table 2): 117.38 ± 4.94%
- Current stimulation (%) α1β2γ2 ([3]; 250 μM with GABA at EC5, Ltk cells, Table 2): 115.68 ± 5.31%
- Current stimulation (%) α1β2γ2 ([3]; 500 μM with GABA at EC5, Ltk cells, Table 2): 132.42 ± 5.31 %
- Current stimulation (%) α1β2γ2 ([3]; 1000 μM with GABA at EC5, Ltk cells, Table 2): 150.26 ± 15.48 %
- Current stimulation (%) α2β2γ2 [4, 6]: 97.94 ± 3.34%
- Current stimulation (%) α2β2γ2 [4, 7]: 111.36 ± 2.65%
- Current stimulation (%) α2β2γ2 [4, 8]: 109.03 ± 7.61%
- Current stimulation (%) α2β2γ2 [4, 9]: 103.60 ± 7.61%
- Current stimulation (%) α2β2γ2 [4, 10]: 104.18 ± 2.66%
- Current stimulation (%) α5β2γ2 [5, 6]: 103.82 ± 1.50%
- Current stimulation (%) α5β2γ2 [5, 7]: 103.83 ± 4.53%
- Current stimulation (%) α5β2γ2 [5, 8]: 93.59 ± 4.30%
- Current stimulation (%) α5β2γ2 [5, 9]: 80.65 ± 5.86%
- Current stimulation (%) α5β2γ2 [5, 10]: 63.01 ± 4.50 %
- effect on hCav3.2 calcium peak currents (in words) [1]: dose dependently inhibited
- Relative current amplitude (%) ([1]; 25 μM): 87.58 ± 2.94%
- Relative current amplitude (%) ([1]; 50 μM): 76.53 ± 5.48%
- Relative current amplitude (%) ([1]; 100 μM): 69.98 ± 4.47%
- Relative current amplitude (%) ([1]; 250 μM): 59.47 ± 6.06 %
- Relative current amplitude (%) ([1]; 500 μM): 45.66 ± 7.45 %
- IC50 ([1]; high affinity fit, read-out: hCav3.2 IC50 (μM) High affinity): 27.1 µM
- IC50 ([1]; low affinity fit, read-out: hCav3.2 IC50 (μM) Low affinity): 711 µM

Structure (SMILES): Cc1ncc2n1-c1ccc(Cl)cc1C(c1ccccc1F)=NC2 [Midazolam]
- Current stimulation (%) α1β2γ2 ([3]; 3 μM with GABA at EC5, Ltk cells, Table 1): 184.81 ± 32.93 %
